Source: PubChem BioAssay AID2060491 (Molecular Pharmacology Branch, DTP, NCI, 2025)

Tested on: 857933-349-R-J2-PDC complex spheroids, viability
Assay: Anticancer human tumor 857933-349-R-J2-PDC patient-derived colon adenocarcinoma cell line growth inhibition [GQUAD]
Conditions: for IC50: curve of first compound; for viability, T/C: stronger effect = lower value
Text: DNA G-quadruplex Stabilizer Agents in Combinations in Complex Spheroids
A high-throughput screen of multi-cell type tumor spheroids was designed to identify active combinations of DNA G-quadruplex stabilizer agents and targeted small molecules. Complex spheroids include a stromal component modeled by human endothelial cells (HUVEC) and fibroblasts modeled by human mesenchymal stem cells (MSCs). The concentration ranges selected for each drug and investigational agent were based upon clinically achievable concentrations if the clinical Cmax of the agent was known.
Compounds. The drugs and investigational agents: pidnarulex (CX-5461; NSC782164), APTO-253 (NSC789042), BRACO-19 (NSC847499), peposertib (NSC802822), ceralasertib (NSC780249), elimusertib (NSC800525), camonsertib (NSC841442), AZD-1390 (NSC803789), olaparib (NSC753686), talazoparib (NSC767125), ART-558 (NSC835418), sotorasib (NSC818433), MRTX-1133 (NSC836407), SN-38 (NSC673596), topotecan (NSC609699), etoposide (NSC141540), doxorubicin (NSC123127), gemcitabine (NSC613327), 5-fluorouracil (NSC19893), paclitaxel (NSC125973), vemurafenib (NSC761431), panobinostat (NSC761190), R-306465 (JNJ-16241199; NSC773264), adavosertib (NSC754352), TP-3654 (NSC805149), carboplatin (NSC241240), KSQ-4279 (NSC840948), and staurosporine (NSC755774) were obtained from the National Cancer Institute (NCI) Developmental Therapeutics Program Chemical Repository (34). The FDA-approved anticancer drug set is available from the NCI Developmental Therapeutics Program. […] The stock solutions were prepared in dimethyl sulfoxide (DMSO, Sigma-Aldrich, St. Louis, MO, cat. D2650) at 800-fold the tested concentration and stored at -70 degrees C prior to their use. All drugs and investigational agents were tested over a range starting from a high concentration at or near the clinical Cmax and decreasing in half-log increments. If the clinical Cmax for an agent had not been determined, the highest concentration tested was 10 microM.
2.3 Cell Culture. All cells were maintained in an incubator at 37 degrees C and 5% CO2 with 95% humidity. The PDC lines were cultured according to standard operating procedures established by the NCI PDMR. All PDCs were thawed and cultured in Matrigel-coated flasks prepared with a working solution of 1X Ham's F-12 nutrient mix, without supplementation (Invitrogen, cat. 11765054), 100 U/mL penicillin-streptomycin (Invitrogen, cat. 15140122), and 2.5% Matrigel (Corning Inc., cat. 354248) for the first three passages. The 857933-349-R-J2-PDC line was cultured in 6C/Colon 1B media, which includes advanced DMEM/F-12 (Thermo Fisher Scientific, cat. 12634028), 10 mM HEPES (Thermo Fisher Scientific, cat. 15630080), 1X GlutaMAX supplement (Thermo Fisher Scientific, cat. 35050061), 0.1 mg/mL primocin (InvivoGen, cat. ant-pm-2), 10% defined fetal bovine serum, heat inactivated (HyClone Laboratories Inc., cat. SH30070.03HI), 50% L-WRN conditioned media (ATCC, cat. CRL-3276), 1.25 mM N-Acetyl-L-cysteine (Sigma-Aldrich, cat. A9165), 10 mM nicotinamide (Sigma-Aldrich, cat. N0636), 1X B-27 supplement (Thermo Fisher Scientific, cat. 17504044), 1X N-2 supplement (Thermo Fisher Scientific, cat. 17502048), 10 microM Y-27632 dihydrochloride (Tocris Bioscience, cat. 1254), and 50 ng/mL human EGF recombinant protein (Thermo Fisher Scientific, cat. PHG0311). The 485176-168-R4-J1-PDC line was cultured in Panc media, which includes all 6C/Colon 1B media components plus 100 ng/mL human FGF-10 (Thermo Fisher Scientific, cat. 100-26), 500 nM SB-431542 (Selleckchem, cat. S1067), and gastrin (Tocris, cat. 3006).
[…]
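Note: spheroids exposed to compounds for one week before readout.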
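Throughout, for viability, T/C: percent viability relative to vehicle DMSO wells taken as 100%.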

Compound `CC[C@@]1(O)C(=O)OCc2c1cc1n(c2=O)Cc2cc3c(CN(C)C)c(O)ccc3nc2-1` + Cc1cnc(CNC(=O)c2c(=O)c3ccc(N4CCCN(C)CC4)nc3n3c2sc2ccccc23)cn1 has an IC50 (second compound 0.0316 µM) of 87.2 nM, an IC50 (second compound 0.1 µM) of 68 nM and an IC50 (second compound 0.316 µM) of under 0.999 nM. For the same compound, the IC50 (second compound 1 µM) was under 0.999 nM, the IC50 (second compound 3.16 µM) was under 0.999 nM and the IC50 (second compound 10 µM) was under 0.999 nM. It also gave a viability, T/C (second compound 0.0316 µM, first compound 0.000999 µM) of 95.9%, a viability, T/C (second compound 0.0316 µM, first compound 0.00316 µM) of 96% and a viability, T/C (second compound 0.0316 µM, first compound 0.00999 µM) of 81.6%. It also gave a viability, T/C (second compound 0.0316 µM, first compound 0.0316 µM) of 59.7%, a viability, T/C (second compound 0.0316 µM, first compound 0.0999 µM) of 53.1% and a viability, T/C (second compound 0.0316 µM, first compound 0.316 µM) of 32.2%. The viability, T/C (second compound 0.1 µM, first compound 0.000999 µM) was 58.2%, the viability, T/C (second compound 0.1 µM, first compound 0.00316 µM) was 65.6% and the viability, T/C (second compound 0.1 µM, first compound 0.00999 µM) was 61.4%. For the same compound, the viability, T/C (second compound 0.1 µM, first compound 0.0316 µM) was 60.3%, the viability, T/C (second compound 0.1 µM, first compound 0.0999 µM) was 44.8% and the viability, T/C (second compound 0.1 µM, first compound 0.316 µM) was 19.6%. The viability, T/C (second compound 0.316 µM, first compound 0.000999 µM) was 23.6%, the viability, T/C (second compound 0.316 µM, first compound 0.00316 µM) was 20.7% and the viability, T/C (second compound 0.316 µM, first compound 0.00999 µM) was 18.6%. The viability, T/C (second compound 0.316 µM, first compound 0.0316 µM) was 22%, the viability, T/C (second compound 0.316 µM, first compound 0.0999 µM) was 14% and the viability, T/C (second compound 0.316 µM, first compound 0.316 µM) was 5.04%. For the same compound, the viability, T/C (second compound 1 µM, first compound 0.000999 µM) was 4.85%, the viability, T/C (second compound 1 µM, first compound 0.00316 µM) was 5.23% and the viability, T/C (second compound 1 µM, first compound 0.00999 µM) was 4.03%. It also gave a viability, T/C (second compound 1 µM, first compound 0.0316 µM) of 3.48%, a viability, T/C (second compound 1 µM, first compound 0.0999 µM) of 2.83% and a viability, T/C (second compound 1 µM, first compound 0.316 µM) of 2.11%. The viability, T/C (second compound 3.16 µM, first compound 0.000999 µM) was 2.58%, the viability, T/C (second compound 3.16 µM, first compound 0.00316 µM) was 2.92% and the viability, T/C (second compound 3.16 µM, first compound 0.00999 µM) was 2.38%. It also gave a viability, T/C (second compound 3.16 µM, first compound 0.0316 µM) of 2.13%, a viability, T/C (second compound 3.16 µM, first compound 0.0999 µM) of 1.91% and a viability, T/C (second compound 3.16 µM, first compound 0.316 µM) of 1.66%. For the same compound, the viability, T/C (second compound 10 µM, first compound 0.000999 µM) was 1.38%, the viability, T/C (second compound 10 µM, first compound 0.00316 µM) was 1.91% and the viability, T/C (second compound 10 µM, first compound 0.00999 µM) was 1.93%. For the same compound, the viability, T/C (second compound 10 µM, first compound 0.0316 µM) was 2.78%, the viability, T/C (second compound 10 µM, first compound 0.0999 µM) was 0.44% and the viability, T/C (second compound 10 µM, first compound 0.316 µM) was 0.24%.
